For orientation: melting point means the temperature of the solid-liquid transition.

The compound `CCc1nc(-c2cccc(C(F)(F)F)c2)c(-c2ccnc(NC(C)=O)c2)s1` [H 82-3, N-[4 [2 ethyl-4 (3-trifluoromethylphenyl)-1,3 thiazol-5 yl]-2 pyridyl]acetamide] showed a melting point of 146 to 147 °C.

With `CCc1nc(-c2ccc(F)c(C)c2)c(-c2ccnc(NC(C)=O)c2)s1` [H 82-4, N-[4 [2 ethyl-4 (4 fluoro-3 methylphenyl)-1,3 thiazol-5 yl]-2 pyridyl]acetamide], the melting point lay in the range of 142 to 143 °C.

Take `CCc1nc(-c2cccc(F)c2)c(-c2ccnc(NC(C)=O)c2)s1` [H 82-5, N-[4 [2 ethyl-4 (3-fluorophenyl)-1,3 thiazol-5 yl]-2 pyridyl]acetamide]: the melting point lay in the range of 141 to 142 °C.

`CCc1nc(-c2ccc(Cl)cc2)c(-c2ccnc(NC(C)=O)c2)s1` [H 82-6, N-[4 [4 (4 chlorophenyl)-2-ethyl-1,3 thiazol-5 yl]-2 pyridyl]acetamide]: the melting point lay within 190 to 191 °C.

Turning to `CCc1cccc(-c2nc(CC)sc2-c2ccnc(NC(C)=O)c2)c1` [H 82-7, N-[4 [2 ethyl-4 (3-ethylphenyl)-1,3 thiazol-5 yl]-2 pyridyl]acetamide], the melting point is 112 to 113 °C.

As to `CCc1nc(-c2cccc(C(C)C)c2)c(-c2ccnc(NC(C)=O)c2)s1` [H 82-8, N-[4 [2 ethyl-4 [3 (1-methylethyl)phenyl]-1,3 thiazol-5 yl]-2 pyridyl]acetamide], the melting point fell in the range of 116 to 117 °C.

For `CCCc1cccc(-c2nc(CC)sc2-c2ccnc(NC(C)=O)c2)c1` [H 82-9, N-[4 [2 ethyl-4 (3-propylphenyl)-1,3 thiazol-5 yl]-2 pyridyl]acetamide], the melting point fell in the range of 121 to 122 °C.

As to `CC(=O)Nc1cc(-c2sc(C)nc2-c2cccc(C)c2)ccn1` [H 82-10, N-[4 [2 methyl-4 (3-methylphenyl)-1,3 thiazol-5 yl]-2 pyridyl]acetamide], the melting point fell in the range of 162 to 163 °C.

On to `CC(=O)Nc1cc(-c2scnc2-c2cccc(C)c2)ccn1` [H 82-11, N-[4 [4 (3 methylphenyl)-1,3 thiazol-5 yl]-2 pyridyl]acetamide], for which the melting point lay within 149 to 150 °C.

`CSc1ccc(-c2nc(-c3cccc(C)c3)c(-c3ccnc(NC(C)=O)c3)s2)cc1` [H 82-12, N-[4 [4 (3 methylphenyl)-2 [4 (methylthio)phenyl]-1,3 thiazol-5 yl]-2 pyridyl]acetamide] returned a melting point of 181 to 182 °C.

On to `CCC(=O)Nc1cc(-c2sc(CC)nc2-c2ccccc2)ccn1` [H 84-1, N-[4 (2 ethyl-4 phenyl-1,3-thiazol-5 yl)-2 pyridyl]propionamide], for which the melting point is 139 to 140 °C.

For the compound `CCC(=O)Nc1cc(-c2sc(CC)nc2-c2ccc(F)cc2)ccn1` [H 84-2, N-[4 [2 ethyl-4 (4-fluorophenyl)-1,3 thiazol-5 yl]-2 pyridyl]propionamide], the melting point lay within 156 to 157 °C.

Compound `CCC(=O)Nc1cc(-c2sc(CC)nc2-c2cccc(C(F)(F)F)c2)ccn1` [H 84-3, N-[4 [2 ethyl-4 (3-trifluoromethylphenyl)-1,3 thiazol-5 yl]-2 pyridyl]propionamide] registered a melting point of 126 to 127 °C.

For `CCC(=O)Nc1cc(-c2sc(CC)nc2-c2ccc(F)c(C)c2)ccn1` [H 84-4, N-[4 [2 ethyl-4 (4 fluoro-3 methylphenyl)-1,3 thiazol-5 yl]-2 pyridyl]propionamide], the melting point fell in the range of 105 to 107 °C.

In the case of `CCC(=O)Nc1cc(-c2sc(CC)nc2-c2cccc(F)c2)ccn1` [H 84-5, N-[4 [2 ethyl-4 (3-fluorophenyl)-1,3 thiazol-5 yl]-2 pyridyl]propionamide], the melting point was in the range of 121 to 122 °C.

For `CCC(=O)Nc1cc(-c2sc(CC)nc2-c2ccc(Cl)cc2)ccn1` [H 84-6, N-[4 [4 (4 chlorophenyl)-2-ethyl-1,3 thiazol-5 yl]-2 pyridyl]propionamide], the melting point lay within 152 to 153 °C.

For `CCC(=O)Nc1cc(-c2sc(CC)nc2-c2cccc(C(C)C)c2)ccn1` [H 84-7, N-[4 [2 ethyl-4 [3 (1-methylethyl)phenyl]-1,3 thiazol-5 yl]-2 pyridyl]propionamide], the melting point was 93 to 94 °C.

Consider `CCCc1cccc(-c2nc(CC)sc2-c2ccnc(NC(=O)CC)c2)c1` [H 84-8, N-[4 [2 ethyl-4 (3-propylphenyl)-1,3 thiazol-5 yl]-2 pyridyl]propionamide], for which the melting point was in the range of 124 to 125 °C.

In turn, `CCCC(=O)Nc1cc(-c2sc(CC)nc2-c2cccc(Cl)c2)ccn1` [H 86, N-[4 [4 (3 chlorophenyl)-2-ethyl-1,3 thiazol-5 yl]-2 pyridyl]butyramide] came in with a melting point of 119 to 120 °C.

`CCCCC(=O)Nc1cc(-c2sc(CC)nc2-c2cccc(C)c2)ccn1` [H 87-1, N-[4 [2 ethyl-4 (3-methylphenyl)-1,3 thiazol-5 yl]-2 pyridyl]valeramide]: the melting point was in the range of 81 to 82 °C.

As to `CCCCCC(=O)Nc1cc(-c2sc(CC)nc2-c2cccc(C)c2)ccn1` [H 87-2, N-[4 [2 ethyl-4 (3-methylphenyl)-1,3 thiazol-5 yl]-2 pyridyl]hexanamide], the melting point was 84 to 85 °C.

`CCCCC(=O)Nc1cc(-c2sc(CC)nc2-c2cccc(Cl)c2)ccn1` [H 88-1, N-[4 [4 (3 chlorophenyl)-2-ethyl-1,3 thiazol-5 yl]-2 pyridyl]valeramide] displayed a melting point of 109 to 110 °C.

For `CCCCCC(=O)Nc1cc(-c2sc(CC)nc2-c2cccc(Cl)c2)ccn1` [H 88-2, N-[4 [4 (3 chlorophenyl)-2-ethyl-1,3 thiazol-5 yl]-2 pyridyl]hexanamide], the melting point lay in the range of 114 to 115 °C.

With `CCc1nc(-c2cccc(C)c2)c(-c2ccnc(NC(=O)CC3CCCC3)c2)s1` [H 89, N-[4 [2 ethyl-4 (3-methylphenyl)-1,3 thiazol-5 yl]-2 pyridyl]cyclopentylacetamide], the melting point lay in the range of 85 to 86 °C.

On to `CCc1nc(-c2cccc(Cl)c2)c(-c2ccnc(NC(=O)CC3CCCC3)c2)s1` [H 90-1, N-[4 [4 (3 chlorophenyl)-2-ethyl-1,3 thiazol-5 yl]-2 pyridyl]cyclopentylacetamide], for which the melting point was 121 to 122 °C.

As to `CCc1nc(-c2ccc(Cl)cc2)c(-c2ccnc(NC(=O)CC3CCCC3)c2)s1` [H 90-2, N-[4 [4 (4 chlorophenyl)-2-ethyl-1,3 thiazol-5 yl]-2 pyridyl]cyclopentylacetamide], the melting point lay in the range of 149 to 150 °C.

The compound `CC(=O)Nc1cc(-c2sc(C3CCN(C(C)=O)CC3)nc2-c2cccc(Cl)c2)ccn1` [H 93, N-[4 [2 (1 acetylpiperidin-4 yl)-4 (3 chlorophenyl)-1,3-thiazol-5 yl]-2 pyridyl]acetamide] had a melting point of 160 to 161 °C.

On to `CCC(=O)Nc1cc(-c2sc(C3CCN(C(C)=O)CC3)nc2-c2cccc(Cl)c2)ccn1` [H 94, N-[4 [2 (1 acetylpiperidin-4-yl)-4 (3 chlorophenyl)-1,3 thiazol-5 yl]-2-pyridyl]propionamide], for which the melting point was in the range of 174 to 175 °C.

In the case of `CC(=O)Nc1cc(-c2sc(-c3ccc(S(C)(=O)=O)cc3)nc2-c2cccc(C)c2)ccn1` [H 98-1, N-[4 [4 (3 methylphenyl)-2-(4 methylsulfonylphenyl)-1,3 thiazol-5 yl]-2 pyridyl]acetamide], the melting point was in the range of 222 to 223 °C.

On to `CCC(=O)Nc1cc(-c2sc(-c3ccc(S(C)(=O)=O)cc3)nc2-c2cccc(C)c2)ccn1` [H 98-2, N-[4 [4 (3 methylphenyl)-2-(4 methylsulfonylphenyl)-1,3 thiazol-5 yl]-2 pyridyl]propionamide], for which the melting point was 238 to 239 °C.

The compound `CSCCc1nc(-c2cccc(C)c2)c(-c2ccnc(N)c2)s1` [H 99-1, 4 [4 (3 methylphenyl)-2 [2-(methylthio)ethyl]-1,3 thiazol-5 yl]-2 pyridylamine] yielded a melting point of 98 to 99 °C.

`Cc1cccc(-c2nc(C(C)OC(=O)c3ccccc3)sc2-c2ccnc(N)c2)c1` (stereo not shown) [H 99-2, 1 [5 (2 amino-4 pyridyl)-4-(3 methylphenyl)-1,3 thiazol-2 yl]ethyl benzoate] showed a melting point of 89 to 91 °C.

Regarding `CSCCc1nc(-c2cccc(Cl)c2)c(-c2ccnc(N)c2)s1` [H 100-1, 4 [4 (3 chlorophenyl)-2-[2 (methylthio)ethyl]-1,3 thiazol-5 yl]-2 pyridylamine], the melting point was 96 to 97 °C.

`CSCc1nc(-c2cccc(Cl)c2)c(-c2ccnc(N)c2)s1` [H 101-1, 4 [4 (3 chlorophenyl)-2-(methylthio)methyl-1,3 thiazol-5 yl]-2 pyridylamine] displayed a melting point of 111 to 112 °C.

`CC(F)(F)c1nc(-c2cccc(Cl)c2)c(-c2ccnc(N)c2)s1` [H 101-2, 4 [4 (3 chlorophenyl)-2-(1,1 difluoroethyl)-1,3 thiazol-5 yl]-2 pyridylamine] had a melting point of 131 to 132 °C.

`CCC(=O)Nc1cc(-c2sc(CCSC)nc2-c2cccc(C)c2)ccn1` [H 102-1, N-[4 [4 (3 methylphenyl)-2 [2 (methylthio)ethyl]-1,3 thiazol-5 yl]-2-pyridyl]propionamide] registered a melting point of 85 to 86 °C.

In the case of `CCC(=O)Nc1cc(-c2sc(CCSC)nc2-c2cccc(Cl)c2)ccn1` [H 102-2, N-[4 [4 (3 chlorophenyl)-2 [2 (methylthio)ethyl]-1,3 thiazol-5 yl]-2-pyridyl]propionamide], the melting point lay in the range of 91 to 92 °C.

For `CCC(=O)Nc1cc(-c2sc(CSC)nc2-c2cccc(Cl)c2)ccn1` [H 102-3, N-[4 [4 (3 chlorophenyl)-2 (methylthio)methyl-1,3 thiazol-5 yl]-2 pyridyl]propionamide], the melting point lay within 118 to 119 °C.

`CCC(=O)Nc1cc(-c2sc(C(C)(F)F)nc2-c2cccc(Cl)c2)ccn1` [H 102-4, N-[4 [4 (3 chlorophenyl)-2 (1,1 difluoroethyl)-1,3 thiazol-5 yl]-2 pyridyl]propionamide]: the melting point was 141 to 142 °C.

The compound `CCC(=O)Nc1cc(-c2sc(C(C)OC(=O)c3ccccc3)nc2-c2cccc(C)c2)ccn1` (stereo not shown) [H 102-5, 1 [4 (3 methylphenyl)-5-(2 propionylamino-4 pyridyl)-1,3 thiazol-2 yl]ethyl benzoate] displayed a melting point of 102 to 103 °C.

(Values after patent publication US20050080113A1, “Medicinal compositions” (priority 2001, published 2005).)
